Molecular target: T1, recombinant human 11 β-HSD1 (Homo sapiens, UniProt P28845)
T1 construct: made in house; host or cells: E. coli
Assay: 11 β-HSD1 SPA Assay (Scintillation Proximity Assay)
Format: biochemical
Outline: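 E. coli-expressed human enzyme (30-100 nM) with tritiated cortisone 40 nM and NADPH 1 mM in HEPES buffer pH7.4, 2 hours at room temperature. Stopped with protein A SPA beads carrying anti-cortisol antibody and glycyrrhetinic acid; counted after overnight incubation. IC50 from percent inhibition between no-enzyme and no-compound signals.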

T1 sequence (P28845 whole entry): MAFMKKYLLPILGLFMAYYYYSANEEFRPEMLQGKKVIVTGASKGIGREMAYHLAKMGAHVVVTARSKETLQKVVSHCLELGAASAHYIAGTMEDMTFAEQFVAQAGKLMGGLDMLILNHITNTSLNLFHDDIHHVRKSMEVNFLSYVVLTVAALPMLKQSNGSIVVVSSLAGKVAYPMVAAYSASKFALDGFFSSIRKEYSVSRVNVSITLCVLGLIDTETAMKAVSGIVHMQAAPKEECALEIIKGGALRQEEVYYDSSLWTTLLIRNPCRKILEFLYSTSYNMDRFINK

Row | SMILES | IC50
1 | CS(=O)(=O)c1ccc(N2[C@@H]3CC[C@H]2C[C@@H](NC(=O)C2(c4ccc(F)c(C(F)(F)F)c4)CC2)C3)nc1 [Example 280, 1-[4-fluoro-3-(trifluoromethyl)phenyl]-N-{8-[5-(methylsulfonyl)pyridin-2-yl]-8-azabicyclo[3.2.1]oct-3-endo-yl}cyclopropanecarboxamide] | < 2000 nM
2 | CS(=O)(=O)c1ccc(N2[C@@H]3CC[C@H]2C[C@@H](NC(=O)C2(c4ccc(F)c(F)c4)CC2)C3)nc1 [Example 281, 1-(3,4-difluorophenyl)-N-{8-[5-(methylsulfonyl)pyridin-2-yl]-8-azabicyclo[3.2.1]oct-3-endo-yl}cyclopropanecarboxamide] | < 2000 nM
3 | CC(C)(Oc1ccc(-c2ccc(F)cc2)cc1Cl)C(=O)N[C@H]1C[C@H]2CC[C@@H](C1)N2c1ccc(C(N)=O)cn1 [Example 282, 6-[3-endo-({2-[(3-chloro-4′-fluorobiphenyl-4-yl)oxy]-2-methylpropanoyl}amino)-8-azabicyclo[3.2.1]oct-8-yl]pyridine-3-carboxamide] | < 200 nM
4 | CC(C)(Oc1ccc(F)cc1C(F)(F)F)C(=O)N[C@H]1C[C@H]2CC[C@@H](C1)N2c1ccc(NS(C)(=O)=O)cc1 [Example 283, 2-{[4-fluoro-2-(trifluoromethyl)phenyl]oxy}-2-methyl-N-(8-{4-[(methylsulfonyl)amino]phenyl}-8-azabicyclo[3.2.1]oct-3-endo-yl)propanamide] | < 200 nM
5 | CC(C)(Oc1ccc(Cl)cc1C(F)(F)F)C(=O)N[C@H]1C[C@H]2CC[C@@H](C1)N2c1ccc(S(C)(=O)=O)cc1 [Example 284, 2-{[4-chloro-2-(trifluoromethyl)phenyl]oxy}-2-methyl-N-{8-[4-(methylsulfonyl)phenyl]-8-azabicyclo[3.2.1]oct-3-endo-yl}propanamide] | < 200 nM
6 | CC(C)(Oc1ccc(Cl)cc1C1CCCCC1)C(=O)N[C@H]1C[C@H]2CC[C@@H](C1)N2c1ccc(C(N)=O)cn1 [Example 285, 6-[3-endo-({2-[(4-chloro-2-cyclohexylphenyl)oxy]-2-methylpropanoyl}amino)-8-azabicyclo[3.2.1]oct-8-yl]pyridine-3-carboxamide] | < 200 nM
7 | CC(C)(Sc1ccc(Cl)cc1Cl)C(=O)N[C@H]1C[C@H]2CC[C@@H](C1)N2c1ccc(C(N)=O)cn1 [Example 286, 6-[3-endo-({2-[(2,4-dichlorophenyl)thio]-2-methylpropanoyl}amino)-8-azabicyclo[3.2.1]oct-8-yl]pyridine-3-carboxamide] | < 200 nM
8 | CC(C)(Oc1ccc(Cl)cc1Cl)C(=O)N[C@H]1C[C@H]2CC[C@@H](C1)N2c1ccc(C(=O)O)cn1 [Example 287, 6-[3-endo-({2-[(2,4-dichlorophenyl)oxy]-2-methylpropanoyl}amino)-8-azabicyclo[3.2.1]oct-8-yl]pyridine-3-carboxylic acid] | < 200 nM
9 | CC(C)(Oc1ccc(F)cc1C(F)(F)F)C(=O)N[C@H]1C[C@H]2CC[C@@H](C1)N2c1ccc(S(C)(=O)=O)nc1 [Example 288, 2-{[4-fluoro-2-(trifluoromethyl)phenyl]oxy}-2-methyl-N-{8-[6-(methylsulfonyl)pyridin-3-yl]-8-azabicyclo[3.2.1]oct-3-endo-yl}propanamide] | < 2000 nM
10 | CS(=O)(=O)c1cccc(C2(C(=O)N[C@H]3C[C@H]4CC[C@@H](C3)N4c3ccc(C(=O)NCC(F)(F)F)cn3)CC2)c1 [Example 289, 6-{3-endo-[({1-[3-(methylsulfonyl)phenyl]cyclo-propyl}carbonyl)amino]-8-azabicyclo[3.2.1]oct-8-yl}-N-(2,2,2-trifluoroethyl)pyridine-3-carboxamide] | < 2000 nM
11 | CC(C)(Oc1ccc(F)c(Cl)c1Cl)C(=O)N[C@H]1C[C@H]2CC[C@@H](C1)N2c1ccc(NS(C)(=O)=O)cn1 [Example 290, 2-[(2,3-dichloro-4-fluorophenyl)oxy]-2-methyl-N-(8-{5-[(methylsulfonyl)amino]pyridin-2-yl}-8-azabicyclo[3.2.1]oct-3-endo-yl)propanamide] | < 200 nM
12 | CC(C)(Oc1ccc(Cl)cc1Cl)C(=O)N[C@H]1C[C@H]2CC[C@@H](C1)N2Cc1cccc(C(N)=O)c1 [Example 291, 3-{[3-endo-({2-[(2,4-dichlorophenyl)oxy]-2-methylpropanoyl}amino)-8-azabicyclo[3.2.1]oct-8-yl]methyl}benzamide] | < 2000 nM
13 | CC(C)(Oc1ccc(F)cc1C(F)(F)F)C(=O)N[C@H]1C[C@H]2CC[C@@H](C1)N2c1ccc(-c2nnn[nH]2)nc1 [Example 292, 2-{[4-fluoro-2-(trifiuoromethyl)phenyl]oxy}-2-methyl-N-{8-[6-(1H-tetrazol-5-yl)pyridin-3-yl]-8-azabicyclo[3.2.1]oct-3-endo-yl}propanamide] | < 200 nM
14 | CC(C)(Oc1ccc(Cl)cc1S(C)(=O)=O)C(=O)N[C@H]1C[C@H]2CC[C@@H](C1)N2c1ccc(S(N)(=O)=O)cn1 [Example 293, N-{8-[5-(aminosulfonyl)pyridin-2-yl]-8-azabicyclo[3.2.1]oct-3-endo-yl}-2-{[4-chloro-2-(methylsulfonyl)phenyl]oxy}-2-methylpropanamide] | < 2000 nM
15 | CC(C)(Oc1ccc(F)cc1F)C(=O)N[C@H]1C[C@H]2CC[C@@H](C1)N2c1ccc(S(N)(=O)=O)cn1 [Example 294, N-{8-[5-(aminosulfonyl)pyridin-2-yl]-8-azabicyclo[3.2.1]oct-3-endo-yl}-2-[(2,4-difluorophenyl)oxy]-2-methylpropanamide] | < 200 nM
16 | CC(C)(Oc1ccc(Cl)cc1Cl)C(=O)N[C@H]1C[C@H]2CC[C@@H](C1)N2Cc1ccc(C(N)=O)cc1 [Example 295, 4-{[3-endo-({2-[(2,4-dichlorophenyl)oxy]-2-methylpropanoyl}amino)-8-azabicyclo[3.2.1]oct-8-yl]methyl}benzamide] | < 2000 nM
17 | CC(C)(Oc1ccc(F)cc1S(C)(=O)=O)C(=O)N[C@H]1C[C@H]2CC[C@@H](C1)N2c1ccc(C(=O)NCC(F)(F)F)cn1 [Example 296, 6-{3-endo-[(2-{[4-fluoro-2-(methylsulfonyl)phenyl]oxy}-2-methylpropanoyl)amino]-8-azabicyclo[3.2.1]oct-8-yl}-N-(2,2,2-trifluoroethyl)pyridine-3-carboxamide] | < 200 nM
18 | CC(C)(Oc1ccc(Cl)c2ccccc12)C(=O)N[C@H]1C[C@H]2CC[C@@H](C1)N2c1ccc(C(N)=O)cn1 [Example 297, 6-[3-endo-({2-[(4-chloronaphthalen-1-yl)oxy]-2-methylpropanoyl}amino)-8-azabicyclo[3.2.1]oct-8-yl]pyridine-3-carboxamide] | < 200 nM
19 | CC(C)(Oc1ccc(F)cc1S(C)(=O)=O)C(=O)N[C@H]1C[C@H]2CC[C@@H](C1)N2c1ccc(S(N)(=O)=O)cn1 [Example 298, N-{8-[5-(aminosulfonyl)pyridin-2-yl]-8-azabicyclo[3.2.1]oct-3-endo-yl}-2-{[4-fluoro-2-(methylsulfonyl)phenyl]oxy}-2-methylpropanamide] | < 2000 nM
20 | CC(C)(Oc1ccc(Cl)cc1C(F)(F)F)C(=O)N[C@H]1C[C@H]2CC[C@@H](C1)N2c1ccc(S(C)(=O)=O)nc1 [Example 299, 2-{[4-chloro-2-(trifluoromethyl)phenyl]oxy}-2-methyl-N-{8-[6-(methylsulfonyl)pyridin-3-yl]-8-azabicyclo[3.2.1]oct-3-endo-yl}propanamide] | < 200 nM
21 | CC(C)(Oc1ccccc1S(C)(=O)=O)C(=O)N[C@H]1C[C@H]2CC[C@@H](C1)N2c1ccc(C(=O)NCC(F)(F)F)cn1 [Example 300, 6-{3-endo-[(2-methyl-2-{[2-(methylsulfonyl)phenyl]oxy}-propanoyl)amino]-8-azabicyclo[3.2.1]oct-8-yl}-N-(2,2,2-trifluoroethyl)pyridine-3-carboxamide] | < 2000 nM
22 | CC(C)(Oc1ccc(Cl)cc1Cl)C(=O)N1[C@@H]2CC[C@H]1C[C@@H](Nc1ccc(C(N)=O)cn1)C2 [Example 302, 6-[(8-{2-[(2,4-dichlorophenyl)oxy]-2-methylpropanoyl}-8-azabicyclo[3.2.1]oct-3-endo-yl)amino]pyridine-3-carboxamide] | < 200 nM
23 | CC(C)(Oc1cc(Cl)c(C(C)(C)O)cc1Cl)C(=O)N[C@H]1C[C@H]2CC[C@@H](C1)N2c1ccc(C(=O)NCC(F)F)cn1 [Example 303, 6-[3-endo-({2-[2,5-dichloro-4-(2-hydroxypropan-2-yl)phenoxy]-2-methylpropanoyl}amino)-8-azabicyclo[3.2.1]oct-8-yl]-N-(2,2-difluoroethyl)pyridine-3-carboxamide] | < 200 nM
24 | CC(C)(Oc1cc(F)c(C(C)(C)O)cc1Cl)C(=O)N[C@H]1C[C@H]2CC[C@@H](C1)N2c1ccc(C(=O)NCC(F)F)cn1 [Example 304, 6-[3-endo-({2-[2-chloro-5-fluoro-4-(2-hydroxypropan-2-yl)phenoxy]-2-methylpropanoyl}amino)-8-azabicyclo[3.2.1]oct-8-yl]-N-(2,2-difluoroethyl)pyridine-3-carboxamide] | < 200 nM
25 | CC(C)(Oc1ccc(Cl)cc1C(F)(F)F)C(=O)N[C@H]1C[C@H]2CC[C@@H](C1)N2c1ccc(-c2nnn[nH]2)nc1 [Example 306, 2-{[4-chloro-2-(trifluoromethyl)phenyl]oxy}-2-methyl-N-{8-[6-(1H-tetrazol-5-yl)pyridin-3-yl]-8-azabicyclo[3.2.1]oct-3-endo-yl}propanamide] | < 200 nM
26 | CC(C)(Oc1ccc(Cl)cc1Cl)C(=O)N[C@H]1C[C@H]2CC[C@@H](C1)N2c1ccc(S(C)(=O)=O)nc1 [Example 307, 2-[(2,4-dichlorophenyl)oxy]-2-methyl-N-{8-[6-(methylsulfonyl)pyridin-3-yl]-8-azabicyclo[3.2.1]oct-3-endo-yl}propanamide] | < 200 nM
27 | CC(C)(C(=O)N[C@H]1C[C@H]2CC[C@@H](C1)N2c1ccc(S(C)(=O)=O)cn1)S(=O)(=O)c1ccc(Cl)cc1Cl [Example 308, 2-[(2,4-dichlorophenyl)sulfonyl]-2-methyl-N-{8-[5-(methylsulfonyl)pyridin-2-yl]-8-azabicyclo[3.2.1]oct-3-endo-yl}propanamide] | < 2000 nM
